In US10759816B2, “Heterocyclic compounds as RSV inhibitors” (Enanta Pharmaceuticals, Inc., priority 2016, dated 2020) one finds EC50 data, which are given here for 57 compounds.

Broadly, the EC50 is the concentration needed to bring the measured effect to its halfway point.

A value given as a limit tells only on which side of the number the result lay.

The subject of the first assay is genotype A, "Long" strain RSV. Put plainly: RSV-A in vitro cytoprotection assay in HEp-2 cells (ATPlite readout of cell viability). Particulars: human respiratory syncytial virus, HEp-2, HEp-2 cells, genotype A “Long” strain RSV, cytoprotection; read-out: Human RSV-A (“Long” strain) EC50. It counts as cell-based, Human respiratory syncytial virus. The gist of the method:
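HEp-2 cells (8,000/well) given 2-fold compound dilutions in duplicate, then infected with RSV-A Long strain stock; viability read by ATPlite luminescence after 4 days. EC50 derived from cytoprotection; cytotoxicity measured on parallel uninfected plate.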
A general note: ATP-based viability assays read luminescence as a measure of living cells.
Turning to `Cc1cccc(F)c1NC(=O)c1cc2c(s1)-c1ccccc1N(C(=O)c1cccc(-c3cn(S(=O)(=O)C4CC4)nc3C3CC3)n1)CC2` [Example 221], the EC50 was less than 400 nM.

Turning to `Cc1cccc(F)c1NC(=O)c1cc2c(s1)-c1ccccc1N(C(=O)c1cccc(-c3cnn(S(=O)(=O)C4CC4)c3C3CC3)n1)CC2` [Example 222], the EC50 lay within 400 to 800 nM. Regarding `Cc1cccc(F)c1NC(=O)c1cc2c(s1)-c1ccccc1N(C(=O)c1cccc(-c3cn(C(=O)OC(C)C)nc3C3CC3)n1)CC2` [Example 223], the EC50 was less than 400 nM. On the same count and under the same terms, the figure for `CCOC(=O)n1cc(-c2cccc(C(=O)N3CCc4cc(C(=O)Nc5c(C)cccc5F)sc4-c4ccccc43)n2)c(C2CC2)n1` [Example 224] is less than 400 nM. Turning to `Cc1cccc(F)c1NC(=O)c1cc2c(s1)-c1ccccc1N(C(=O)c1cccc(-c3cn(C(=O)C(C)C)nc3C3CC3)n1)CC2` [Example 225], the EC50 is less than 400 nM. On the same count and under the same terms, next, `COCCn1cc(-c2cccc(C(=O)N3CCc4cc(C(=O)Nc5c(C)cccc5F)sc4-c4ccccc43)n2)c(C2CC2)n1` [Example 226]: more than 800 nM; `Cc1cccc(F)c1NC(=O)c1cc2c(s1)-c1ccccc1N(C(=O)c1cccc(-c3cn(CCS(C)(=O)=O)nc3C3CC3)n1)CC2` [Example 227]: more than 800 nM. On the same count and under the same terms, the figure for `Cc1cccc(F)c1NC(=O)c1cc2c(s1)-c1ccccc1N(C(=O)c1cccc(-c3cn(CCN(C)C)nc3C3CC3)n1)CC2` [Example 228] is more than 800 nM; for `Cc1cccc(F)c1NC(=O)c1cc2c(s1)-c1ccccc1N(C(=O)c1cccc(-c3cnn(CCN(C)C)c3C3CC3)n1)CC2` [Example 229] it is more than 800 nM; for `Cc1cccc(F)c1NC(=O)c1cc2c(s1)-c1ccccc1N(C(=O)c1cccc(-c3cn(CC(N)=O)nc3C3CC3)n1)CC2` [Example 230] it is more than 800 nM. Still for that read-out and setting: next, `Cc1cccc(F)c1NC(=O)c1cc2c(s1)-c1ccccc1N(C(=O)c1cccc(-c3cn(CS(C)(=O)=O)nc3C3CC3)n1)CC2` [Example 231]: more than 800 nM.

With `Cc1cccc(F)c1NC(=O)c1cc2c(s1)-c1ccccc1N(C(=O)c1cccc(-c3cnn(Cc4ccccc4)c3-c3ccccn3)n1)CC2` [Example 232], the EC50 is more than 800 nM.

Consider `Cc1cccc(F)c1NC(=O)c1cc2c(s1)-c1ccccc1N(C(=O)c1cccc(-c3cncn3C3CC3)n1)CC2` [Example 233], for which the EC50 is less than 400 nM. Same read-out and setting: next, `Cc1cc(-c2cccc(C(=O)N3CCc4cc(C(=O)Nc5c(C)cccc5F)sc4-c4ccccc43)n2)n(C)n1` [Example 234]: less than 400 nM; `Cc1cccc(F)c1NC(=O)c1cc2c(s1)-c1ccccc1N(C(=O)c1cccc(-c3ccn(C)n3)n1)CC2` [Example 235]: more than 800 nM; `Cc1cccc(F)c1NC(=O)c1cc2c(s1)-c1ccccc1N(C(=O)c1cccc(-c3ccnn3C(C)C)n1)CC2` [Example 236]: less than 400 nM. For the compound `Cc1cccc(F)c1NC(=O)c1cc2c(s1)-c1ccccc1N(C(=O)c1cccc(-c3ccnn3C)n1)CC2` [Example 237], the EC50 was less than 400 nM. Still for that read-out and setting: next, `CCn1nccc1-c1cccc(C(=O)N2CCc3cc(C(=O)Nc4c(C)cccc4F)sc3-c3ccccc32)n1` [Example 238]: less than 400 nM; `Cc1cc(-c2cccc(C(=O)N3CCc4cc(C(=O)Nc5ccccc5N)sc4-c4ccccc43)n2)n(C)n1` [Example 239]: more than 800 nM. On the same count and under the same terms, the figure for `Cn1ccc(-c2cccc(C(=O)N3CCc4cc(C(=O)Nc5ccccc5N)sc4-c4ccccc43)n2)n1` [Example 240] is more than 800 nM; for `CC(C)n1nccc1-c1cccc(C(=O)N2CCc3cc(C(=O)Nc4ccccc4N)sc3-c3ccccc32)n1` [Example 241] it is less than 400 nM; for `Cn1nccc1-c1cccc(C(=O)N2CCc3cc(C(=O)Nc4ccccc4N)sc3-c3ccccc32)n1` [Example 242] it is less than 400 nM. Still for that read-out and setting: next, `Cc1cccc(F)c1NC(=O)c1cc2c(s1)-c1ccccc1N(C(=O)c1cccc(-c3c[nH]c4ncccc34)n1)CC2` [Example 243]: less than 400 nM; `Cc1cccc(F)c1NC(=O)c1cc2c(s1)-c1ccccc1N(C(=O)c1cccc(-c3cnn4ccccc34)n1)CC2` [Example 244]: less than 400 nM; `Cc1cnc2[nH]cc(-c3cccc(C(=O)N4CCc5cc(C(=O)Nc6c(C)cccc6F)sc5-c5ccccc54)n3)c2c1` [Example 245]: less than 400 nM.

Regarding `Cc1ccc2c(-c3cccc(C(=O)N4CCc5cc(C(=O)Nc6c(C)cccc6F)sc5-c5ccccc54)n3)cn(C(=O)OC(C)(C)C)c2c1` [Example 246], the EC50 was more than 800 nM.

As for `Cc1ccc2c(-c3cccc(C(=O)N4CCc5cc(C(=O)Nc6c(C)cccc6F)sc5-c5ccccc54)n3)c[nH]c2c1` [Example 247], the EC50 was less than 400 nM. The same measure, in the same setting: the figure for `Cc1cccc(F)c1NC(=O)c1cc2c(s1)-c1ccccc1N(C(=O)c1cccc(-c3cn(C(=O)OC(C)(C)C)c4ccc(Cl)cc34)n1)CC2` [Example 248] is more than 800 nM; for `Cc1cccc(F)c1NC(=O)c1cc2c(s1)-c1ccccc1N(C(=O)c1cccc(-c3c[nH]c4ccc(Cl)cc34)n1)CC2` [Example 249] it is less than 400 nM; for `Cc1cccc(F)c1NC(=O)c1cc2c(s1)-c1ccccc1N(C(=O)c1cccc(-c3cn(C(=O)OC(C)(C)C)c4c(Cl)cccc34)n1)CC2` [Example 250] it is 400 to 800 nM.

Take `Cc1cccc(F)c1NC(=O)c1cc2c(s1)-c1ccccc1N(C(=O)c1cccc(-c3c[nH]c4c(Cl)cccc34)n1)CC2` [Example 251]: the EC50 was less than 400 nM. On the same count and under the same terms, the figure for `Cc1cccc(F)c1NC(=O)c1cc2c(s1)-c1ccccc1N(C(=O)c1cccc(-c3cn(C(=O)OC(C)(C)C)c4c(C)cccc34)n1)CC2` [Example 252] is more than 800 nM; for `Cc1cccc(F)c1NC(=O)c1cc2c(s1)-c1ccccc1N(C(=O)c1cccc(-c3c[nH]c4c(C)cccc34)n1)CC2` [Example 253] it is less than 400 nM.

Consider `Cc1ccc2[nH]cc(-c3cccc(C(=O)N4CCc5cc(C(=O)Nc6c(C)cccc6F)sc5-c5ccccc54)n3)c2c1` [Example 255], for which the EC50 lay in the range of 400 to 800 nM. Same read-out and setting: the figure for `Cc1cccc(F)c1NC(=O)c1cc2c(s1)-c1ccccc1N(C(=O)c1cccc(-c3coc4ccccc34)n1)CC2` [Example 256] is less than 400 nM; for `Cc1cccc(F)c1NC(=O)c1cc2c(s1)-c1ccccc1N(C(=O)c1cccc(-c3coc4cccnc34)n1)CC2` [Example 257] it is more than 800 nM. `Cc1cccc(F)c1NC(=O)c1cc2c(s1)-c1ccccc1N(C(=O)c1cccc(-c3coc4ccncc34)n1)CC2` [Example 258]: the EC50 is more than 800 nM. On the same count and under the same terms, next, `Cc1cccc(F)c1NC(=O)c1cc2c(s1)-c1cccc(F)c1N(C(=O)c1cccc(-c3c[nH]c4ncccc34)n1)CC2` [Example 259]: less than 400 nM.

As to `Cc1cccc(F)c1NC(=O)c1cc2c(s1)-c1ccccc1N(C(=O)c1cccc(-c3conc3C)n1)CC2` [Example 261], the EC50 was less than 400 nM. On the same count and under the same terms, the figure for `Cc1cccc(F)c1NC(=O)c1cc2c(s1)-c1ccccc1N(C(=O)c1cccc(-c3cnoc3C)n1)CC2` [Example 262] is more than 800 nM. Turning to `Cc1cccc(F)c1NC(=O)c1cc2c(s1)-c1cc(F)ccc1N(C(=O)c1cccc(-c3c[nH]nc3C3CC3)n1)CC2` [Example 263], the EC50 is less than 400 nM. `COc1ccc(-c2cccc(C(=O)N3CCc4cc(C(=O)Nc5c(C)cccc5F)sc4-c4ccccc43)n2)cn1` [Example 264]: the EC50 was more than 800 nM. On the same count and under the same terms, the figure for `Cc1cccc(F)c1NC(=O)c1cc2c(s1)-c1ccccc1N(C(=O)c1cccc(-c3c[nH]nc3/C=C/c3ccccc3)n1)CC2` [Example 265] is more than 800 nM; for `Cc1cccc(F)c1NC(=O)c1cc2c(s1)-c1ccccc1N(C(=O)c1ccc(-c3c[nH]c4ncccc34)cc1)CC2` [Example 266] it is more than 800 nM; for `COC(=O)n1cc(-c2ccc(C(=O)N3CCc4cc(C(=O)Nc5c(C)cccc5F)sc4-c4ccccc43)cc2)c2cccnc21` [Example 267] it is more than 800 nM.

Consider `Cc1cccc(F)c1NC(=O)c1cc2c(s1)-c1ccccc1N(C(=O)c1ccc(-c3cn(S(C)(=O)=O)c4ncccc34)cc1)CC2` [Example 268], for which the EC50 was more than 800 nM. With `Cc1cccc(F)c1NC(=O)c1cc2c(s1)-c1ccccc1N(C(=O)c1ccc(-c3c[nH]nc3C)cc1)CC2` [Example 269], the EC50 is more than 800 nM. For the compound `Cc1cc(-c2ccc(C(=O)N3CCc4cc(C(=O)Nc5c(C)cccc5F)sc4-c4ccccc43)cc2)n[nH]1` [Example 270], the 50% effective concentration (EC50) is more than 800 nM. With `Cc1cc(-c2ccc(C(=O)N3CCc4cc(C(=O)Nc5c(C)cccc5F)sc4-c4ccccc43)cc2)n(S(C)(=O)=O)n1` [Example 271], the EC50 was more than 800 nM. `Cc1cccc(F)c1NC(=O)c1cc2c(s1)-c1ccccc1N(C(=O)c1ccc(-c3c[nH]c4ccccc34)cc1)CC2` [Example 272]: the EC50 is more than 800 nM. In the case of `CCn1nccc1-c1cccc(C(=O)N2CCc3cc(C(=O)Nc4c(C)cccc4F)oc3-c3ccccc32)n1` [Example 273], the EC50 was more than 800 nM. On to `Cc1cccc(F)c1NC(=O)c1cc2c(o1)-c1ccccc1N(C(=O)c1cccc(-c3c[nH]c4ncccc34)n1)CC2` [Example 274], for which the half-maximal effective concentration (EC50) is less than 400 nM. As for `Cc1cccc(F)c1NC(=O)c1cc2c(o1)-c1ccccc1N(C(=O)c1cccc(-c3c[nH]nc3C3CC3)n1)CC2` [Example 275], the EC50 is less than 400 nM.

Regarding `O=C(NC1CC1)c1cc2c(s1)-c1ccccc1N(C(=O)c1cccc(N3CCOC[C@@H]3c3ccccc3)n1)CC2` [Example 276], the EC50 is more than 800 nM. Consider `O=C(NC1CC1)c1cc2c(s1)-c1ccccc1N(C(=O)c1cccc(N3CCOC[C@H]3c3ccccc3)n1)CC2` [Example 277], for which the EC50 was more than 800 nM. For the compound `O=C(NC1CC1)c1cc2c(s1)-c1ccccc1N(C(=O)c1cccc(N3CCOc4ccc(F)cc4C3)n1)CC2` [Example 278], the EC50 was less than 400 nM.

The same assay, now with this note: human respiratory syncytial virus, HEp-2, read-out: Human RSV-A (“Long” strain) EC50.
Consider `Cc1ccc2c(c1)c(-c1cccc(C(=O)N3CCc4cc(C(=O)Nc5c(C)cccc5F)sc4-c4ccccc43)n1)cn2[Si](C)(C)C(C)(C)C` [Example 254], for which the EC50 is more than 800 nM.
